According to patent US8551984B2, “Aminopyrimidines as SYK inhibitors” (Merck Sharp & Dohme Corp., priority 2009, dated 2013):

Target: rhSYK (Homo sapiens, UniProt P43405)
Experiment: not given
Settings: read-out: rhSYK Activity; Table 117

IC50 [nM] | Structure (SMILES)
< 100 | Cc1cc(Nc2nccc(C(F)(F)F)n2)cc(-c2cnc(C(C)(O)c3ccc(C(N)=O)cc3)s2)c1 (single isomer, unassigned) [Example 117-21]

Same assay, conditions: read-out: rhSYK Activity; class symbol; where two forms are listed, one symbol per form

Structure (SMILES) | IC50 [nM]
Cc1cc(Nc2nccc(C(F)(F)F)n2)cc(-c2cnc(C(C)(O)c3ccc(CC(=O)O)cc3)s2)c1 (single isomer, unassigned) [Example 4A-59] | < 100
Cc1cc(Nc2nccc(C(F)(F)F)n2)cc(-c2cnc(C(C)(O)c3ccc(CC(=O)O)cc3)s2)c1 (single isomer, unassigned) [Example 4A-60] | < 100
COc1cc(C(C)(O)c2ncc(-c3cc(C)cc(Nc4nccc(C(F)(F)F)n4)c3)s2)ccc1C(=O)O (single isomer, unassigned) [Example 4A-65] | < 100
COc1cc(C(C)(O)c2ncc(-c3cc(C)cc(Nc4nccc(C(F)(F)F)n4)c3)s2)ccc1C(=O)O (single isomer, unassigned) [Example 4A-66] | < 100
Cc1cc(Nc2nccc(C(F)(F)F)n2)cc(-c2cnc(C(C)(O)c3ccc(Br)nc3)s2)c1 (single isomer, unassigned) [Example 4A-68] | < 100
Cc1cc(Nc2nccc(C(F)(F)F)n2)cc(-c2cnc(C(C)(O)c3ccc(Br)nc3)s2)c1 (single isomer, unassigned) [Example 4A-69] | < 100

Further lines, results first:

IC50 [nM] | Structure (SMILES)
< 100 | Cc1cc(Nc2nccc(C(F)(F)F)n2)cc(-c2cnc(C(C)(O)c3cccc(C(=O)O)c3)s2)c1 (single isomer, unassigned) [Example 4A-54]
< 100 | Cc1cc(Nc2nccc(C(F)(F)F)n2)cc(-c2cnc(C(C)(O)c3cccc(C(=O)O)c3)s2)c1 (single isomer, unassigned) [Example 4A-55]
< 100 | Cc1cc(Nc2nccc(C(F)(F)F)n2)cc(-c2cnc(C(O)(CO)C(F)(F)F)s2)c1 (single isomer, unassigned) [Example 6-8]
< 100 | Cc1cc(Nc2nccc(C(F)(F)F)n2)cc(-c2cnc(C(O)(CO)C(F)(F)F)s2)c1 (single isomer, unassigned) [Example 6-9]

Same assay, conditions: read-out: rhSYK activity; class symbol given

IC50 [nM] | Structure (SMILES)
< 100 | Cc1cc(Nc2nccc(C(F)(F)F)n2)cc(-c2cnc(C3(O)CCC(C(=O)O)CC3)s2)c1 (single isomer, unassigned) [33(1), trans-4-hydroxy-4-[5-(3-methyl-5-{[4-(trifluoromethyl)pyrimidin-2-yl]amino}phenyl)-1,3-thiazol-2-yl]cyclohexanecarboxylic acid]
< 100 | Cc1cc(Nc2nccc(C(F)(F)F)n2)cc(-c2cnc(C3(O)CCC(C(=O)O)CC3)s2)c1 (single isomer, unassigned) [33(2), cis-4-hydroxy-4-[5-(3-methyl-5-{[4-(trifluoromethyl)pyrimidin-2-yl]amino}phenyl)-1,3-thiazol-2-yl]cyclohexanecarboxylic acid]

Target: recombinant human SYK (GST-hSYK fusion protein) (Homo sapiens, UniProt P43405)
Experiment: biochemical
Settings: Syk IC50, HTRF, recombinant human GST-SYK
Description: Homogeneous Time-Resolved Fluorescence (HTRF) Assay for the Recombinant Human SYK Enzyme:

IC50 [nM] | Structure (SMILES)
297 | Cc1cc(Nc2nccc(C(F)(F)F)n2)cc(-c2cnc(C3CCC4(CC3)OCCO4)s2)c1 [N-{3-[2-(1,4-diaxaspiro[4.5]dec-8-yl)-1,3-thiazol-5-yl]-5-methylphenyl}-4-(trifluoromethyl)pyrimidin-2-amine]
216 | Cc1cc(Nc2nccc(C(F)(F)F)n2)cc(-c2cnc(C3(O)CCCN(CC(=O)O)CC3)s2)c1 (centres unmarked) [{4-hydroxy-4-[5-(3-methyl-5-{[4-(trifluoromethyl)pyrimidin-2-yl]amino}phenyl)-1,3-thiazol-2-yl]azepan-1-yl)acetic acid]

Same assay, conditions: rhSYK Activity (IC50), recombinant human GST-SYK 5 pM, ATP 25 μM, biotinylated substrate peptide 250 nM, HTRF, 10-dose titration

IC50 [nM] | Structure (SMILES)
< 100 | Cc1cc(Nc2nccc(OCCO)n2)cc(-c2cnc(C3(O)CCC(C(=O)O)C(C)(C)C3)s2)c1 (centres unmarked) [Example 159, 4-hydroxy-4-[5-(3-{[4-(2-hydroxyethoxy)pyrimidin-2-yl]amino}-5-methylphenyl)-1,3-thiazol-2-yl]-2,2-dimethylcyclohexanecarboxylic acid]
< 100 | Cc1cc(Nc2nccc(C(F)(F)F)n2)cc(-c2cnc(C3(N)CCNC(=O)CC3)s2)c1 (centres unmarked) [Example 162, 5-amino-5-[5-(3-methyl-5-{[4-(trifluoromethyl)pyrimidin-2-yl]amino}phenyl)-1,3-thiazol-2-yl]azepan-2-one]
